From patent US20240122179A1, “AUXINIC HERBICIDES AND METHODS OF USE THEREOF” (CORTEVA AGRISCIENCE LLC, priority 2021, published 2024)
Like-named read-outs stand apart in the source and are kept apart here.

Assays:
Kochia scoparia (KCHSC) = assay: Postemergence herbicide evaluation, percent reduction in plant size vs untreated control, 21 days after treatment; format: in vivo; conditions: Bassia scoparia, post-emergence, 504 h, KCHSC, postemergence, read-out: Control/Injury; for pest or weed control at 140 g/ha: rate 140 g ae/ha; for pest or weed control at 280 g/ha: rate 280 g ae/ha
Summary of the method: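 Values are percent reduction in plant size against an untreated control, measured 21 days after a single postemergence spray at 140 or 280 g ae/ha (187 L/ha, 276 kPa). Treatments used 3-4 randomized complete-block replicates on 2 to 8 leaf-stage plants kept in a 25-28 °C greenhouse, with compounds in acetone/DMSO-based solvent containing crop oil and surfactant.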

Amaranthus rudis (AMATA) = assay: as above; format: in vivo, Amaranthus rudis (tall water hemp); conditions: Amaranthus tuberculatus, post-emergence, 504 h, AMATA, postemergence, read-out: Control/Injury; for pest or weed control at 140 g/ha: rate 140 g ae/ha; for pest or weed control at 280 g/ha: rate 280 g ae/ha
Summary of the method: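 Growth-reduction values are percent decrease in plant size relative to untreated plants, scored 21 days post-application. Amaranthus rudis (2-8 leaves) received postemergence sprays at 140 or 280 g ae/ha, 187 L/ha, in a mixed acetone/DMSO/water/isopropanol carrier with crop oil concentrate. Greenhouse conditions were 25-28° C, 50-60% RH; 3-4 randomized replicates.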

Glycine max = assay: whole plant or invertebrate; conditions: for Control/Injury: in vivo
Description: Plants were grown in a soil media composed of 90% by volume Promix BX (Premier Tech Horticulture, Quakertown, PA) and 10% Profile Greens Grade (Profile Products LLC, Buffalo Grove, IL). Promix BX contains approximately 83% Sphagnum Peat Moss, 13% Perlite, 5% vermiculite, and proprietary amounts of limestone, starter fertilizer, and wetting agent. Profile Greens Grade is a sand-sized granule formed from calcining illite and montmorillonite clay. Several seeds of each species were planted in 10 cm square pots and top watered twice daily. Plant material was propagated in a warm greenhouse with temperature ranging from 25 to 28° C. and 50 to 60% relative humidity at the Corteva Global Headquarters (Indianapolis, Indiana, USA). Natural light was supplemented with 1000-watt metal halide overhead lamps with an average illumination of 500 μE m^−2 s^−1 photosynthetic active radiation for 16 consecutive hours each day. Plants were top-watered prior to herbicide application and sub-watered after herbicide application.
Appropriate amounts of test materials were weighed out into glass vials in their technical form to deliver either 140 or 280 g acid equivalent (ae)/ha. The samples were dissolved in 3 ml of Solvent 1. Solvent 1 is 97% acetone and 3% dimethyl sulfoxide and serves as a general-purpose solvent (GPS) for dissolving technical materials. […] The samples were then diluted to their final concentration using 17 ml of solvent 2 for a total of 20 ml of spray solution. Solvent 2 contains 41.58% GPS, 45.53% water, 11.88% isopropyl alcohol, 0.99% crop oil concentrate and 0.02% Trition X-155 surfactant. All percentages are listed on a volume basis. Dicamba diglycolamine was applied as a formulated herbicide, Clarity™ and diluted with solvent 2 to compare all materials in the same spray solution.
Herbicide applications were made to 3 to 4 replicates of each plant species at the 2 to 8 leaf stage, depending on the species. Treatments were applied with a research track-sprayer (Generation III Research Sprayer manufactured by DeVries Manufacturing in Hollandale, MN, USA) calibrated to deliver a spray volume of 187 L/ha. The track-sprayer was fitted with an 8003E nozzle from Spray Systems Company (North Avenue and Schmale Road, P.O. Box 7900, Wheaton, IL 60187), and used a spray pressure of 276 kPa pressure and a speed of 3.1 km/h. The nozzle height was 46 cm above the plant canopy. The experimental design used for the trials was a randomized complete block with 3 or 4 replications per treatment. After application, plants were placed on carts according to the randomization and returned to the greenhouse. Plants were sub-watered after treatment with Indianapolis city water or fertilized three times a week with a commercial fertilizer solution (Jack's Professional 15-5-15 4 Ca 2 Mg fertilizer (manufactured by JR PETERS INC., 6656 Grant Way, Allentown, PA 18106; www.jrpeters.com). Percent visual control assessments were made on a scale of 0 to 100% (where 0 was no control and 100 was complete plant death) at 7, 14, and 21 days after treatment.
In conformity with the methods outlined in Example 49, the effect of representative experimental compounds on the growth of Glycine max was determined at 2 different levels (respectively, 140 and 280 g acid equivalent (ae)/ha) of the experimental actives tested. Plants were treated with one of the compounds, a control plant was not treated. Twenty-one days after treatment, the plants were measured. The data is present as a percent reduction in plant size relative to the untreated control.

[1] = test system: Amaranthus palmeri (AMAPA); assay: Postemergence herbicide evaluation, percent reduction in plant size vs untreated control, 21 days after treatment; format: in vivo, Amaranthus palmeri (Palmer amaranth); conditions: post-emergence, 504 h, postemergence, read-out: Control/Injury; for pest or weed control at 140 g/ha: rate 140 g ae/ha; for pest or weed control at 280 g/ha: rate 280 g ae/ha
Summary of the method: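 Percent reduction in plant size relative to untreated plants, measured 21 days after track-sprayer application (187 L/ha) of 140 or 280 g ae/ha to Amaranthus palmeri at the 2 to 8 leaf stage. Randomized complete block, 3 or 4 replicates, greenhouse at 25 to 28° C; spray solution acetone/DMSO with isopropanol, water and crop oil concentrate.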

[2] = test system: Conyza canadensis (L.) (ERICA); assay: as above; format: in vivo, Conyza canadensis (L.) (Horseweed); conditions: Erigeron canadensis, post-emergence, 504 h, ERICA, postemergence, read-out: Control/Injury; for pest or weed control at 140 g/ha: rate 140 g ae/ha; for pest or weed control at 280 g/ha: rate 280 g ae/ha
Summary of the method: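 Track-sprayer applications (187 L/ha, 276 kPa) of 140 or 280 g ae/ha, technical material dissolved in acetone/DMSO then diluted with crop oil and surfactant-containing solvent, to greenhouse Conyza canadensis at 2-8 leaves. After 21 days, size reduction relative to untreated plants was recorded; 3-4 randomized replicates.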

[3] = test system: Ambrosia artemisiifolia (AMBEL); assay: as above; format: in vivo, Ambrosia artemisiifolia (common ragweed); conditions: post-emergence, 504 h, AMBEL, postemergence, read-out: Control/Injury; for pest or weed control at 140 g/ha: rate 140 g ae/ha; for pest or weed control at 280 g/ha: rate 280 g ae/ha
Summary of the method: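 Test compounds at 140 or 280 g ae/ha were applied by track sprayer (187 L/ha, spray solution containing acetone/DMSO, isopropanol, crop oil, surfactant) to 2–8 leaf plants, 3–4 replicates. Plants were kept in a greenhouse at 25–28 °C. Size reduction was scored against untreated controls at 21 days.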

[4] = Glycine max, post-emergence, 504 h, read-out: Control/Injury
[5] = R-AMAPA, percent reduction vs untreated control, 21 days after treatment
[6] = percent reduction vs untreated control, 21 days after treatment
[7] = percent reduction vs untreated, 21 days after treatment

## COc1c(Cl)ccc(Cl)c1C(=O)Nc1ccc(Cl)cc1 [Compound A-77]
Kochia scoparia (KCHSC)
  pest or weed control at 140 g/ha: 96%
  pest or weed control at 280 g/ha: 93%
Amaranthus rudis (AMATA)
  pest or weed control at 140 g/ha: 83%
  pest or weed control at 280 g/ha: 85%
Glycine max; [4]
  plant injury at 140 g/ha: 8%
  plant injury at 280 g/ha: 8%
[1]; [5]
  pest or weed control at 140 g/ha: 82%
  pest or weed control at 280 g/ha: 78%
[2]; [6]
  pest or weed control at 140 g/ha: 40%
  pest or weed control at 280 g/ha: 68%
[3]
  pest or weed control at 140 g/ha: 67%
  pest or weed control at 280 g/ha: 77%

## COc1c(Cl)ccc(Cl)c1C(=O)Oc1nc(-c2ccccc2)cs1 [Compound A-120]
Kochia scoparia (KCHSC); [7]
  pest or weed control at 140 g/ha: 63%
  pest or weed control at 280 g/ha: 85%
Amaranthus rudis (AMATA)
  pest or weed control at 140 g/ha: 40%
  pest or weed control at 280 g/ha: 58%
Glycine max
  Control/Injury: 5
[1]; AMAPA
  pest or weed control at 140 g/ha: 28%
  pest or weed control at 280 g/ha: 45%
[2]
  pest or weed control at 140 g/ha: 85%
  pest or weed control at 280 g/ha: 99%
[3]
  pest or weed control at 140 g/ha: 68%
  pest or weed control at 280 g/ha: 85%

## COc1c(Cl)ccc(Cl)c1C(=O)Nc1ncccn1 [Compound A-62]
Kochia scoparia (KCHSC)
  pest or weed control at 140 g/ha: 77%
  pest or weed control at 280 g/ha: 90%
Amaranthus rudis (AMATA)
  pest or weed control at 140 g/ha: 65%
  pest or weed control at 280 g/ha: 76%
Glycine max
  Control/Injury: 3
[1]; [5]
  pest or weed control at 140 g/ha: 73%
  pest or weed control at 280 g/ha: 92%
[2]; [6]
  pest or weed control at 140 g/ha: 82%
  pest or weed control at 280 g/ha: 93%
[3]
  pest or weed control at 140 g/ha: 83%
  pest or weed control at 280 g/ha: 87%

## COc1c(Cl)ccc(Cl)c1C(=O)N1C(=O)C(=O)c2ccccc21 [Compound A-116]
Kochia scoparia (KCHSC); [7]
  pest or weed control at 140 g/ha: 0%
  pest or weed control at 280 g/ha: 5%
Amaranthus rudis (AMATA)
  pest or weed control at 140 g/ha: 5%
  pest or weed control at 280 g/ha: 33%
Glycine max
  Control/Injury: 2
[1]; AMAPA
  pest or weed control at 140 g/ha: 8%
  pest or weed control at 280 g/ha: 30%
[2]
  pest or weed control at 140 g/ha: 3%
  pest or weed control at 280 g/ha: 5%
[3]
  pest or weed control at 140 g/ha: 3%
  pest or weed control at 280 g/ha: 10%
